Laboratory results taken from patent EP4667483A1, “HUMAN TRANSFERRIN RECEPTOR-BINDING PEPTIDE” (JCR Pharmaceuticals Co., Ltd., priority 2023, dated 2024).
pKd: −log10 of the molar value. Bridge positions count the residues as written; N and C are the ends. Square brackets hold non-standard residues; d marks the D form. Peptide text beside a SMILES is read from it. * marks the point of attachment. Trp(1-CH2COOH) = N[C@@H](Cc1cn(CC(=O)O)c2ccccc12)C(=O)O; CH2CON(CH2CH2)2NCH2COOH = O=C(O)CN1CCN(C(=O)C*)CC1; NMePhe(4-COOH) = CN[C@@H](Cc1ccc(C(=O)O)cc1)C(=O)O; Nle(6-morpholino) = N[C@@H](CCCCN1CCOCC1)C(=O)O; Phe(3-COOH) = N[C@@H](Cc1cccc(C(=O)O)c1)C(=O)O; Trp(7-aza) = N[C@@H](Cc1c[nH]c2ncccc12)C(=O)O; NH(CH2CH2O)8Me = COCCOCCOCCOCCOCCOCCOCCOCCN*; NMePhe(3-Cl) = CN[C@@H](Cc1cccc(Cl)c1)C(=O)O; 3Pal(6-NH2) = Nc1ccc(C[C@H](N)C(=O)O)cn1; NMeY = CN[C@@H](Cc1ccc(O)cc1)C(=O)O; Nva(3-Et) = CCC(CC)[C@H](N)C(=O)O; 4Pal = N[C@@H](Cc1ccncc1)C(=O)O; PEG4 = NCCOCCOCCOCCOCCC(=O)O; Carboxymethyl = O=C(O)C*

Key:
[1] = biological target: T1, human transferrin receptor (hTfR) (Homo sapiens, UniProt P02786); assay: SPR measurement under pH 6.0 conditions (Biacore T200, NTA chip, immobilized hTfR); type: binding; settings: pH 6.0, single-cycle kinetics; read-out: hTfR SPR pH6.0 KD
[2] = biological target: T1, human transferrin receptor (hTfR); assay: SPR measurement under pH 7.4 conditions (Biacore T200, CM3 chip, hTfR captured by His Tag antibody); type: binding; settings: pH 7.4, single-cycle kinetics; read-out: hTfR SPR pH7.4 KD

T1 sequence (P02786 whole entry): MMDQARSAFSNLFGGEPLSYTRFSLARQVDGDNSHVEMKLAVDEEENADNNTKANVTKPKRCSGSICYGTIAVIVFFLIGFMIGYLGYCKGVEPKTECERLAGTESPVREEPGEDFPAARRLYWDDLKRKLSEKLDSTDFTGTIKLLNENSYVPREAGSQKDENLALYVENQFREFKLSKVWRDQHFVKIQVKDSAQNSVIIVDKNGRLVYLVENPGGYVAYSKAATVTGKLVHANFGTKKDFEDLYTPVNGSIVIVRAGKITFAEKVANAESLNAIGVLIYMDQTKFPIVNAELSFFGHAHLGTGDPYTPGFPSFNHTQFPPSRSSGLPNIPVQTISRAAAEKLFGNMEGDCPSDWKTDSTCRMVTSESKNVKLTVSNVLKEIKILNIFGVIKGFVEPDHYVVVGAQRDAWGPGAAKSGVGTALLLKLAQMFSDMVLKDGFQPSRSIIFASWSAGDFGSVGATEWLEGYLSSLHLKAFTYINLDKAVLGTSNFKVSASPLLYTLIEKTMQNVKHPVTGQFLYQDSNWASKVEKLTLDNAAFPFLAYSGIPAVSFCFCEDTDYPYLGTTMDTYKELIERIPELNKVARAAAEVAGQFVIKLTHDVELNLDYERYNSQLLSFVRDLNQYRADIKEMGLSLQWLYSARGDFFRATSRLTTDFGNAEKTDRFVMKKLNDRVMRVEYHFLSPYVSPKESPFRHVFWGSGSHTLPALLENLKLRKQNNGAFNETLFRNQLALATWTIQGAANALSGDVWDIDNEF

pKd [1] | pKd [2] | SMILES
6.27 | 6.95 | CCC(CC)[C@@H]1NC(=O)[C@H](Cc2ccc(OCC(=O)O)cc2)NC(=O)[C@H](Cc2ccc(N)nc2)NC(=O)[C@H](CC(N)=O)NC(=O)[C@H](Cc2cn(CC(=O)O)c3ccccc23)NC(=O)[C@H](C(C)C)NC(=O)[C@H](Cc2cccc(Cl)c2)N(C)C(=O)[C@H](C(C)C)NC(=O)[C@H](C)NC(=O)CSC[C@@H](C(=O)NCCOCCOCCOCCOCCC(N)=O)NC(=O)[C@H](Cc2ccc(O)cc2)N(C)C(=O)[C@H](Cc2ccncc2)NC(=O)[C@H](CCCNC(=N)N)NC(=O)[C@H](CCC(=O)NCCOCCOCCOCCOCCOCCOCCOCCOC)NC(=O)[C@H]([C@@H](C)CC)NC1=O [compound 48] ({CH2CO}-AV[NMePhe(3-Cl)]V[Trp(1-CH2COOH)]N[3Pal(6-NH2)]Y(Carboxymethyl)[Nva(3-Et)]IE(NH(CH2CH2O)8Me)R[4Pal][NMeY]C[PEG4]-NH2; thioether N-15)
6.24 | 4.80 | CCC(CC)[C@@H]1NC(=O)[C@H](Cc2ccc(OCC(=O)O)cc2)NC(=O)[C@H](Cc2ccc(N)nc2)NC(=O)[C@H](CC(N)=O)NC(=O)[C@H](Cc2cn(CC(=O)O)c3ccccc23)NC(=O)[C@H](C(C)C)NC(=O)[C@H](Cc2cccc(Cl)c2)N(C)C(=O)[C@H](C(C)C)NC(=O)[C@H](C)NC(=O)CSC[C@@H](C(=O)NCCOCCOCCOCCOCCC(N)=O)NC(=O)[C@H](Cc2ccc(C(=O)O)cc2)N(C)C(=O)[C@H](Cc2ccncc2)NC(=O)[C@H](CCCCN2CCOCC2)NC(=O)[C@H](CCC(N)=O)NC(=O)[C@H]([C@@H](C)CC)NC1=O [compound 49] ({CH2CO}-AV[NMePhe(3-Cl)]V[Trp(1-CH2COOH)]N[3Pal(6-NH2)]Y(Carboxymethyl)[Nva(3-Et)]IQ[Nle(6-morpholino)][4Pal][NMePhe(4-COOH)]C[PEG4]-NH2; thioether N-15)
5.75 | 5.19 | CCC(CC)[C@@H]1NC(=O)[C@H](Cc2ccc(OCC(=O)O)cc2)NC(=O)[C@H](Cc2ccc(N)nc2)NC(=O)[C@H](CC(N)=O)NC(=O)[C@H](Cc2cn(CC(=O)O)c3ccccc23)NC(=O)[C@H](C(C)C)NC(=O)[C@H](Cc2cccc(Cl)c2)N(C)C(=O)[C@H](C(C)C)NC(=O)[C@H](C)NC(=O)CSC[C@@H](C(=O)NCCOCCOCCOCCOCCC(N)=O)NC(=O)[C@H](Cc2ccc(C(=O)O)cc2)N(C)C(=O)[C@H](Cc2ccncc2)NC(=O)[C@H](CCCNC(=N)N)NC(=O)[C@H](CCC(=O)NCCOCCOCCOCCOCCOCCOCCOCCOC)NC(=O)[C@H]([C@@H](C)CC)NC1=O [compound 50] ({CH2CO}-AV[NMePhe(3-Cl)]V[Trp(1-CH2COOH)]N[3Pal(6-NH2)]Y(Carboxymethyl)[Nva(3-Et)]IE(NH(CH2CH2O)8Me)R[4Pal][NMePhe(4-COOH)]C[PEG4]-NH2; thioether N-15)
6.16 | 5.81 | CC[C@H](C)[C@@H]1NC(=O)[C@H](Cc2ccc(OCC(=O)N3CCN(CC(=O)O)CC3)cc2)NC(=O)[C@H](Cc2ccc(N)nc2)NC(=O)[C@H](CC(N)=O)NC(=O)[C@H](Cc2cn(CC(=O)O)c3ccccc23)NC(=O)[C@H](C(C)C)NC(=O)[C@H](Cc2cccc(Cl)c2)N(C)C(=O)[C@H](C(C)C)NC(=O)[C@H](C)NC(=O)CSC[C@@H](C(=O)NCCOCCOCCOCCOCCC(N)=O)NC(=O)[C@H](Cc2ccc(C(=O)O)cc2)N(C)C(=O)[C@H](Cc2cccc(C(=O)O)c2)NC(=O)[C@H](CCCCN2CCOCC2)NC(=O)[C@H](CCC(N)=O)NC(=O)[C@H]([C@@H](C)CC)NC1=O [compound 51] ({CH2CO}-AV[NMePhe(3-Cl)]V[Trp(1-CH2COOH)]N[3Pal(6-NH2)]Y(CH2CON(CH2CH2)2NCH2COOH)IIQ[Nle(6-morpholino)][Phe(3-COOH)][NMePhe(4-COOH)]C[PEG4]-NH2; thioether N-15)
6.20 | 5.24 | CCC(CC)[C@@H]1NC(=O)[C@H](Cc2ccc(OCC(=O)N3CCN(CC(=O)O)CC3)cc2)NC(=O)[C@H](Cc2ccc(N)nc2)NC(=O)[C@H](CC(N)=O)NC(=O)[C@H](Cc2cn(CC(=O)O)c3ccccc23)NC(=O)[C@H](C(C)C)NC(=O)[C@H](Cc2cccc(Cl)c2)N(C)C(=O)[C@H](C(C)C)NC(=O)[C@H](C)NC(=O)CSC[C@@H](C(=O)NCCOCCOCCOCCOCCC(N)=O)NC(=O)[C@H](Cc2ccc(O)cc2)N(C)C(=O)[C@H](Cc2cccc(C(=O)O)c2)NC(=O)[C@H](CCCCN2CCOCC2)NC(=O)[C@H](CCC(N)=O)NC(=O)[C@H]([C@@H](C)CC)NC1=O [compound 52] ({CH2CO}-AV[NMePhe(3-Cl)]V[Trp(1-CH2COOH)]N[3Pal(6-NH2)]Y(CH2CON(CH2CH2)2NCH2COOH)[Nva(3-Et)]IQ[Nle(6-morpholino)][Phe(3-COOH)][NMeY]C[PEG4]-NH2; thioether N-15)
8.04 | 8.86 | CCC(CC)[C@@H]1NC(=O)[C@H](Cc2ccc(OC)cc2)NC(=O)[C@H](Cc2ccc(O)cc2)NC(=O)[C@H](CC(N)=O)NC(=O)[C@H](Cc2c[nH]c3ncccc23)NC(=O)[C@H](C(C)C)NC(=O)[C@H](Cc2cccc(Cl)c2)N(C)C(=O)[C@H](C(C)C)NC(=O)[C@H](C)NC(=O)CSC[C@@H](C(=O)NCCOCCOCCOCCOCCC(N)=O)NC(=O)[C@H](Cc2ccc(O)cc2)N(C)C(=O)[C@H](Cc2ccncc2)NC(=O)[C@H](CCCNC(=N)N)NC(=O)[C@H](CCCCN2CCOCC2)NC(=O)[C@H]([C@@H](C)CC)NC1=O [compound 54] ({CH2CO}-AV[NMePhe(3-Cl)]V[Trp(7-aza)]NYY(Me)[Nva(3-Et)]I[Nle(6-morpholino)]R[4Pal][NMeY]C[PEG4]-NH2; thioether N-15)
7.41 | 7.58 | CCC(CC)[C@@H]1NC(=O)[C@H](Cc2ccc(OCC(=O)N3CCN(CC(=O)O)CC3)cc2)NC(=O)[C@H](Cc2ccc(O)cc2)NC(=O)[C@H](CC(N)=O)NC(=O)[C@H](Cc2cn(CC(=O)O)c3ccccc23)NC(=O)[C@H](C(C)C)NC(=O)[C@H](Cc2cccc(Cl)c2)N(C)C(=O)[C@H](C(C)C)NC(=O)[C@H](C)NC(=O)CSC[C@@H](C(=O)NCCOCCOCCOCCOCCC(N)=O)NC(=O)[C@H](Cc2ccc(C(=O)O)cc2)N(C)C(=O)[C@H](Cc2cccc(C(=O)O)c2)NC(=O)[C@H](CCCCN2CCOCC2)NC(=O)[C@H](CCCCN2CCOCC2)NC(=O)[C@H]([C@@H](C)CC)NC1=O [compound 55] ({CH2CO}-AV[NMePhe(3-Cl)]V[Trp(1-CH2COOH)]NYY(CH2CON(CH2CH2)2NCH2COOH)[Nva(3-Et)]I[Nle(6-morpholino)][Nle(6-morpholino)][Phe(3-COOH)][NMePhe(4-COOH)]C[PEG4]-NH2; thioether N-15)
7.14 | 7.90 | CCC(CC)[C@@H]1NC(=O)[C@H](Cc2ccc(OCC(=O)N3CCN(CC(=O)O)CC3)cc2)NC(=O)[C@H](Cc2ccc(O)cc2)NC(=O)[C@H](CC(N)=O)NC(=O)[C@H](Cc2cn(CC(=O)O)c3ccccc23)NC(=O)[C@H](C(C)C)NC(=O)[C@H](Cc2cccc(Cl)c2)N(C)C(=O)[C@H](C(C)C)NC(=O)[C@H](C)NC(=O)CSC[C@@H](C(=O)NCCOCCOCCOCCOCCC(N)=O)NC(=O)[C@H](Cc2ccc(C(=O)O)cc2)N(C)C(=O)[C@H](Cc2ccncc2)NC(=O)[C@H](CCCCN2CCOCC2)NC(=O)[C@H](CCCCN2CCOCC2)NC(=O)[C@H]([C@@H](C)CC)NC1=O [compound 56] ({CH2CO}-AV[NMePhe(3-Cl)]V[Trp(1-CH2COOH)]NYY(CH2CON(CH2CH2)2NCH2COOH)[Nva(3-Et)]I[Nle(6-morpholino)][Nle(6-morpholino)][4Pal][NMePhe(4-COOH)]C[PEG4]-NH2; thioether N-15)
